Reference: paper PMC9145144, “Virtual Screening and Hit Selection of Natural Compounds as Acetylcholinesterase Inhibitors” (Molecules, 2022)
Converted amounts (≈) assume the structure as drawn. “And” between values parts separate entries of the source, which are not always exact repeats. Identical values can stand only once. “Also recorded” adds a separate entry of the source. Like-named read-outs stand apart in the source and are kept apart here.

Key:
[1] = ABTS radical scavenging activity; conditions: for ABTS (%) radical scavenging activity: absorbance at 734 nm after 7 min, triplicate, means ± SD, BHT 1 mM in MeOH, na = not active; for antioxidant activity (in words): ABTS radical scavenging
Procedure: […] (ABTS), potassium persulphate, and butylhydroxy toluol (BHT) were purchased from Sigma-Aldrich. For ABTS assay, the procedure followed the method of Grochowski et al. with some modifications. The stock solutions included 7 mM ABTS solution and 2.4 mM potassium persulphate solution. The working solution was then prepared by mixing the two stock solutions in equal quantities and allowing them to react for 14 h at room temperature in the dark. […] A fresh ABTS solution was prepared for each assay. […] of each com-pound (125 μL) was allowed to react with 1850 μL of the ABTS solution, and the absorbance was taken at 734 nm after 7 min. The control contains 125 μL methanol and 1850 μL of the ABTS solution. All determinations were performed in triplicate (n = 3). The results were expressed as % ABTS activity, using the following equation: % ABTS radical scavenging activity = ((Acontrol − Asample)/Acontrol) × 100, where Acontrol is the absorbance of the control, while Asample is the absorbance of the sample. Butylhydroxytoluene (BHT) (1 mM in MeOH) was used as a positive control.

[2] = target: acetylcholinesterase from Electrophorus electricus (Electrophorus electricus, UniProt O42275); assay: biochemical; assay type: biochemical; conditions: for IC50: triplicate, means ± SD, na = not active
AChE = conditions: cited from earlier work
BChE = conditions: cited from earlier work
[3] = set-up: method as in doi:10.1016/j.phytol.2015.03.012; conditions: cited from earlier work
NMDA receptor = NMDA receptor antagonists; cited from earlier work
[4] = Ellman's method, read-out: IC50

Sequence of acetylcholinesterase from Electrophorus electricus (O42275 24-633): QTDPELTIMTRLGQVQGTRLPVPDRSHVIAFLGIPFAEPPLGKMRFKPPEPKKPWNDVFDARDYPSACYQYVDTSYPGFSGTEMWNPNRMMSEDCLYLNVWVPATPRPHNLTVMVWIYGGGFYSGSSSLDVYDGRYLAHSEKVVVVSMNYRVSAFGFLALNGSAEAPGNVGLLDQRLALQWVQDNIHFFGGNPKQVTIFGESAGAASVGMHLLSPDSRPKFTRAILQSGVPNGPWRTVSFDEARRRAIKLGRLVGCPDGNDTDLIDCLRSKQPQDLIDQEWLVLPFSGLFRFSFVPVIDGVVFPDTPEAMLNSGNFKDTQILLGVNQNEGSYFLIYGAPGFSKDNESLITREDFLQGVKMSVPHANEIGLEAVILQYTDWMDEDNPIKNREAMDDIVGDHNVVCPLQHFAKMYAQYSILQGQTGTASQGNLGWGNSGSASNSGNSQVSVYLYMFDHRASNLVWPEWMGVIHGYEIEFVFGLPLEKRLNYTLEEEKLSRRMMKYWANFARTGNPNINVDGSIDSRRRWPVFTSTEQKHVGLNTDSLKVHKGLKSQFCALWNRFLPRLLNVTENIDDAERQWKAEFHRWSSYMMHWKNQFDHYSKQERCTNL

Q: Which “ABTS (%) radical scavenging activity” value [1] does the source give for `Cc1cc(C(C)(C)C)c(O)c(C(C)(C)C)c1` [BHT, butylhydroxytoluene, reference compound] here?
A: 92.38% and 92.38 ± 0.21%

Q: Which “AChE inhibitory activity (in words)” value ([2]; Ellman's method) does the source give for `O=C(Cn1ccc2ccc(F)cc21)NC[C@@H]1CCCN2CCCC[C@H]12` [Compound 9, N-{[(1S,9aR)-octahydro-1H-quinolizin-1-yl]methyl}-2-(6-fluoro-1H-indol-1-yl)acetamide] here?
A: micro- to low millimolar range

Q: What about the IC50 [2, 4] of the same compound?
A: 1000 to 2000 µM and 1800 µM

Q: And the “ABTS (%) radical scavenging activity” value [1]?
A: 6.43% and 6.43 ± 0.85%

Q: Which “AChE inhibitory activity (in words)” value ([2]; Ellman's method) does the source give for `CC(=O)Nc1ccc(N[C@@H]2OC(=O)c3c2c2ccccc2n3C)cc1` [Compound 16, (R)-N-(4-((4-methyl-3-oxo-3,4-dihydro-1H-furo [3,4-b]indol-1-yl)amino)phenyl)acetamide] here?
A: no AChE activity

Q: What about the “antioxidant activity (in words)” value [1] of the same compound?
A: higher than that of the positive control

Q: What about the “ABTS (%) radical scavenging activity” value [1] of the same compound?
A: 95.82% and 95.82 ± 0.21%

Q: With `O=C1C2CCCN2C(=O)c2ccccc2N1CCc1ccccc1` (centres unmarked) [Compound 17] as the compound, how does the IC50 [2, 4] read?
A: > 10000 µM

Q: Which “AChE inhibitory activity (in words)” value ([2]; Ellman's method) does the source give for `Cc1ccc(NC(=O)C[C@H]2NCCc3c([nH]c4ccccc34)C2=O)cc1` [Compound 21, N-(4-methylphenyl)-2-{5-oxo-1H,2H,3H,4H,5H,6H-azepino [4,5-b]indol-4-yl} acetamide] here?
A: micro- to low millimolar range

Q: And the IC50 [2, 4]?
A: 1000 to 2000 µM and 1200 µM

Q: What about the “ABTS (%) radical scavenging activity” value [1] of the same compound?
A: 34.68% and 34.68 ± 1.27%

Q: With `O=C(/C=C/c1ccccc1)N1C[C@@H]2C[C@H](C1)c1cccc(=O)n1C2` [Compound 22, (1S,9R)-11-[(2E)-3-phenylprop-2-enoyl]-7,11-diazatricyc lotrideca-2,4-dien-6-one] as the compound, how does the “AChE inhibitory activity (in words)” value ([2]; Ellman's method) read?
A: micromolar range; also recorded: micro- to low millimolar range

Q: What about the IC50 ([2]; IC50, Ellman's method) of the same compound?
A: 390 ± 160 µM

Q: Which results are given for `CC1CCc2c([nH]c3ccccc23)C2(N1)C(=O)Nc1ccccc12` (centres unmarked) [Compound 28, 3-methyl-1′,2′,3,4,5,10-hexahydro-2H-spiro[azepino [3,4-b]indole-1,3′-indol]-2′-one]?
A: AChE inhibitory activity (in words) ([2]; Ellman's method): micromolar range; also recorded: micro- to low millimolar range; IC50 [2, 4]: 620 ± 140 µM; antioxidant activity (in words) [1]: high antioxidant activity; ABTS (%) radical scavenging activity [1]: 80.94% and 70.55 ± 0.85%

Q: With `C=CCN1C(=O)C2(NCCc3c2[nH]c2ccc(C)cc32)c2ccccc21` (centres unmarked) [Compound 29, 6′-methyl-1-(prop-2-en-1-yl)-1,2,2′,3′,4′,9′-hexahydrospiro[indole-3,1′-pyrido [3,4-b]indol]-2-one] as the compound, how does the “AChE inhibitory activity (in words)” value ([2]; Ellman's method) read?
A: micro- to low millimolar range

Q: And the IC50 [2, 4]?
A: > 5000 µM and 5700 µM

Q: What about the “antioxidant activity (in words)” value [1] of the same compound?
A: high antioxidant activity

Q: What about the “ABTS (%) radical scavenging activity” value [1] of the same compound?
A: 70.55% and 80.94% and 80.94 ± 0.94%

Q: Which “inhibition of AChE (in words)” value (AChE) does the source give for `O=c1cccc2n1C[C@@H]1CNC[C@H]2C1` [Cytisine] here?
A: does not inhibit

Q: And the “inhibition of BChE (in words)” value (BChE)?
A: does not inhibit

Q: Which “IC50 scavenging activity in the ABTS model” value [3] does the source give for `O=C1O[C@H]([C@@H](O)CO)C(O)=C1O` [ascorbic acid] here?
A: 105.90 µg/mL (≈ 601 µM)

Q: With `CC[C@H]1C[C@@H]2CN3CCc4c([nH]c5ccccc45)[C@](C(=O)OC)(C2)[C@H]13` [coronaridine] as the compound, how does the Ki (NMDA receptor) read?
A: 6.2 µM

Q: Which Ki (NMDA receptor) does the source give for Ibogaine here?
A: 1.1 µM
